“And” between values parts separate entries of the source, which are not always exact repeats. Equal entries are not always repeated. Inconclusive results and toxic doses are left out. Rule as the data show it: active = T/C of 150% or more; inactive = T/C below 125%.
Test system: L1210 leukemia ip in BDF1 mice, survival T/C
Test: NCI In Vivo Anticancer Drug Screen. Data for tumor model L1210 Leukemia (intraperitoneal) in B6D2F1 (BDF1) mice
Conditions: higher = longer survival
In short: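 In this screen, tumor-bearing mice given compound are compared to those given vehicle, and their survival values are reported as a treated-to-control quotient.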

Measured: T/C

C[n+]1c2ccccc2nc2c(N)cc(N)cc21
inactive: endpoint: mean survival time, dose: 1.0 mg/kg/injection, schedule: Q03HX024 (ip), vehicle: saline 101 % of control | endpoint: mean survival time, dose: 1.25 mg/kg/injection, schedule: Q#A X030 (ip), vehicle: water 104 % of control | endpoint: mean survival time, dose: 2.0 mg/kg/injection, schedule: Q01DX005 (iv), vehicle: saline 99 % of control | endpoint: mean survival time, dose: 2.0 mg/kg/injection, schedule: Q01DX009 (ip), vehicle: saline 96 % of control | endpoint: mean survival time, dose: 2.0 mg/kg/injection, schedule: Q03HX016 (ip), vehicle: saline 101 % of control | endpoint: mean survival time, dose: 2.0 mg/kg/injection, schedule: Q03HX024 (ip), vehicle: saline 107 % of control | endpoint: mean survival time, dose: 2.5 mg/kg/injection, schedule: Q01DX010 (oral), vehicle: water 105 % of control | endpoint: mean survival time, dose: 2.5 mg/kg/injection, schedule: Q#A X030 (ip), vehicle: water 107 % of control | endpoint: mean survival time, dose: 3.0 mg/kg/injection, schedule: Q01DX Z (ip), vehicle: saline 109 % of control | endpoint: mean survival time, dose: 3.12 mg/kg/injection, schedule: Q01DX001 (ip), vehicle: water 109 % of control and 110 % of control | endpoint: mean survival time, dose: 4.0 mg/kg/injection, schedule: Q01DX001 (iv), vehicle: saline 94 % of control | endpoint: mean survival time, dose: 4.0 mg/kg/injection, schedule: Q01DX005 (iv), vehicle: saline 96 % of control | endpoint: mean survival time, dose: 4.0 mg/kg/injection, schedule: Q01DX007 (iv), vehicle: saline 113 % of control | endpoint: mean survival time, dose: 4.0 mg/kg/injection, schedule: Q01DX009 (ip), vehicle: saline 104 % of control | endpoint: mean survival time, dose: 4.0 mg/kg/injection, schedule: Q01DX Z (sc), vehicle: steriod suspending solution 103 % of control | endpoint: mean survival time, dose: 4.0 mg/kg/injection, schedule: Q03HX008 (ip), vehicle: saline 107 % of control | endpoint: mean survival time, dose: 4.0 mg/kg/injection, schedule: Q03HX016 (ip), vehicle: saline 96 % of control | endpoint: mean survival time, dose: 4.0 mg/kg/injection, schedule: Q03HX024 (ip), vehicle: saline 100 % of control | endpoint: mean survival time, dose: 4.4 mg/kg/injection, schedule: Q#A X Z (ip), vehicle: carboxymethylcellulose (CMC) 110 % of control | endpoint: mean survival time, dose: 5.0 mg/kg/injection, schedule: Q01DX001 (ip), vehicle: saline 103 % of control | endpoint: mean survival time, dose: 5.0 mg/kg/injection, schedule: Q01DX009 (ip), vehicle: saline 111 % of control | endpoint: mean survival time, dose: 5.0 mg/kg/injection, schedule: Q01DX Z (im), vehicle: saline 104 % of control | endpoint: mean survival time, dose: 5.0 mg/kg/injection, schedule: Q01DX Z (ip), vehicle: saline 112 % of control | endpoint: mean survival time, dose: 6.25 mg/kg/injection, schedule: Q01DX001 (ip), vehicle: water 110 % of control | endpoint: mean survival time, dose: 6.65 mg/kg/injection, schedule: Q#A X Z (ip), vehicle: carboxymethylcellulose (CMC) 104 % of control | endpoint: mean survival time, dose: 8.0 mg/kg/injection, schedule: Q01DX001 (iv), vehicle: saline 96 % of control | endpoint: mean survival time, dose: 8.0 mg/kg/injection, schedule: Q01DX005 (iv), vehicle: saline 93 % of control | endpoint: mean survival time, dose: 8.0 mg/kg/injection, schedule: Q01DX007 (iv), vehicle: saline 104 % of control | endpoint: mean survival time, dose: 8.0 mg/kg/injection, schedule: Q01DX009 (ip), vehicle: saline 101 % of control | endpoint: mean survival time, dose: 8.0 mg/kg/injection, schedule: Q01DX Z (sc), vehicle: steriod suspending solution 109 % of control | endpoint: mean survival time, dose: 8.0 mg/kg/injection, schedule: Q03HX008 (ip), vehicle: saline 110 % of control | endpoint: mean survival time, dose: 8.0 mg/kg/injection, schedule: Q03HX016 (ip), vehicle: saline 101 % of control | endpoint: mean survival time, dose: 8.0 mg/kg/injection, schedule: Q03HX024 (ip), vehicle: saline 112 % of control | endpoint: mean survival time, dose: 8.0 mg/kg/injection, schedule: Q04DX003 (ip), vehicle: saline 101 % of control | endpoint: mean survival time, dose: 10.0 mg/kg/injection, schedule: Q01DX001 (ip), vehicle: saline 103 % of control | endpoint: mean survival time, dose: 10.0 mg/kg/injection, schedule: Q01DX010 (oral), vehicle: water 113 % of control | endpoint: mean survival time, dose: 10.0 mg/kg/injection, schedule: Q01DX Z (im), vehicle: saline 106 % of control | endpoint: mean survival time, dose: 12.5 mg/kg/injection, schedule: Q01DX001 (ip), vehicle: water 112 % of control | endpoint: mean survival time, dose: 16.0 mg/kg/injection, schedule: Q01DX001 (iv), vehicle: saline 96 % of control | endpoint: mean survival time, dose: 16.0 mg/kg/injection, schedule: Q01DX005 (iv), vehicle: saline 102 % of control | endpoint: mean survival time, dose: 16.0 mg/kg/injection, schedule: Q01DX009 (sc), vehicle: saline 104 % of control | endpoint: mean survival time, dose: 16.0 mg/kg/injection, schedule: Q01DX Z (sc), vehicle: steriod suspending solution 104 % of control and 105 % of control | endpoint: mean survival time, dose: 16.0 mg/kg/injection, schedule: Q03HX008 (ip), vehicle: saline 107 % of control | endpoint: mean survival time, dose: 16.0 mg/kg/injection, schedule: Q03HX016 (ip), vehicle: saline 104 % of control and 113 % of control | endpoint: mean survival time, dose: 16.0 mg/kg/injection, schedule: Q04DX003 (ip), vehicle: saline 103 % of control | endpoint: mean survival time, dose: 16.0 mg/kg/injection, schedule: Q08DX002 (ip), vehicle: saline 102 % of control | endpoint: mean survival time, dose: 20.0 mg/kg/injection, schedule: Q01DX001 (ip), vehicle: saline 101 % of control | endpoint: mean survival time, dose: 20.0 mg/kg/injection, schedule: Q01DX009 (ip), vehicle: saline 110 % of control | endpoint: mean survival time, dose: 20.0 mg/kg/injection, schedule: Q01DX010 (oral), vehicle: water 107 % of control and 111 % of control | endpoint: mean survival time, dose: 20.0 mg/kg/injection, schedule: Q01DX Z (im), vehicle: saline 108 % of control | endpoint: mean survival time, dose: 20.0 mg/kg/injection, schedule: Q01DX Z (ip), vehicle: saline 114 % of control | endpoint: mean survival time, dose: 20.0 mg/kg/injection, schedule: Q01DX Z (oral), vehicle: saline 106 % of control | endpoint: mean survival time, dose: 25.0 mg/kg/injection, schedule: Q01DX001 (ip), vehicle: other 112 % of control | endpoint: mean survival time, dose: 32.0 mg/kg/injection, schedule: Q01DX001 (ip), vehicle: saline 108 % of control | endpoint: mean survival time, dose: 32.0 mg/kg/injection, schedule: Q01DX001 (iv), vehicle: saline 96 % of control | endpoint: mean survival time, dose: 32.0 mg/kg/injection, schedule: Q01DX009 (oral), vehicle: saline 102 % of control | endpoint: mean survival time, dose: 32.0 mg/kg/injection, schedule: Q01DX009 (sc), vehicle: saline 106 % of control | endpoint: mean survival time, dose: 32.0 mg/kg/injection, schedule: Q01DX Z (sc), vehicle: steriod suspending solution 100 % of control | endpoint: mean survival time, dose: 32.0 mg/kg/injection, schedule: Q03HX016 (ip), vehicle: saline 110 % of control | endpoint: mean survival time, dose: 32.0 mg/kg/injection, schedule: Q04DX003 (ip), vehicle: saline 107 % of control | endpoint: mean survival time, dose: 32.0 mg/kg/injection, schedule: Q08DX002 (ip), vehicle: saline 98 % of control | endpoint: mean survival time, dose: 37.0 mg/kg/injection, schedule: Q01DX001 (ip), vehicle: other 107 % of control | endpoint: mean survival time, dose: 40.0 mg/kg/injection, schedule: Q01DX001 (ip), vehicle: saline 110 % of control | endpoint: mean survival time, dose: 40.0 mg/kg/injection, schedule: Q01DX009 (ip), vehicle: saline 97 % of control | endpoint: mean survival time, dose: 40.0 mg/kg/injection, schedule: Q01DX010 (oral), vehicle: water 104 % of control | endpoint: mean survival time, dose: 40.0 mg/kg/injection, schedule: Q01DX Z (ip), vehicle: saline 109 % of control | endpoint: mean survival time, dose: 50.0 mg/kg/injection, schedule: Q01DX001 (ip), vehicle: water 110 % of control | endpoint: mean survival time, dose: 56.0 mg/kg/injection, schedule: Q01DX001 (ip), vehicle: other 111 % of control | endpoint: mean survival time, dose: 61.6 mg/kg/injection, schedule: Q07DX Z (ip), vehicle: carboxymethylcellulose (CMC) 112 % of control | endpoint: mean survival time, dose: 64.0 mg/kg/injection, schedule: Q01DX001 (ip), vehicle: saline 114 % of control | endpoint: mean survival time, dose: 64.0 mg/kg/injection, schedule: Q01DX001 (oral), vehicle: saline 106 % of control | endpoint: mean survival time, dose: 64.0 mg/kg/injection, schedule: Q01DX001 (sc), vehicle: saline 98 % of control | endpoint: mean survival time, dose: 64.0 mg/kg/injection, schedule: Q01DX009 (oral), vehicle: saline 98 % of control | endpoint: mean survival time, dose: 64.0 mg/kg/injection, schedule: Q01DX Z (sc), vehicle: steriod suspending solution 101 % of control | endpoint: mean survival time, dose: 64.0 mg/kg/injection, schedule: Q08DX002 (ip), vehicle: saline 104 % of control | endpoint: mean survival time, dose: 80.0 mg/kg/injection, schedule: Q01DX001 (ip), vehicle: saline 103 % of control | endpoint: mean survival time, dose: 80.0 mg/kg/injection, schedule: Q01DX010 (oral), vehicle: water 110 % of control | endpoint: mean survival time, dose: 93.1 mg/kg/injection, schedule: Q07DX Z (ip), vehicle: carboxymethylcellulose (CMC) 110 % of control | endpoint: mean survival time, dose: 128.0 mg/kg/injection, schedule: Q01DX001 (oral), vehicle: saline 98 % of control | endpoint: mean survival time, dose: 128.0 mg/kg/injection, schedule: Q01DX001 (sc), vehicle: saline 98 % of control | endpoint: mean survival time, dose: 128.0 mg/kg/injection, schedule: Q08DX002 (ip), vehicle: saline 104 % of control | endpoint: mean survival time, dose: 140.0 mg/kg/injection, schedule: Q07DX Z (ip), vehicle: carboxymethylcellulose (CMC) 112 % of control | endpoint: mean survival time, dose: 160.0 mg/kg/injection, schedule: Q01DX010 (oral), vehicle: water 110 % of control | endpoint: mean survival time, dose: 256.0 mg/kg/injection, schedule: Q01DX001 (oral), vehicle: saline 98 % of control | endpoint: mean survival time, dose: 256.0 mg/kg/injection, schedule: Q01DX001 (sc), vehicle: saline 105 % of control | endpoint: mean survival time, dose: 256.0 mg/kg/injection, schedule: Q01DX009 (oral), vehicle: saline 104 % of control and 114 % of control | endpoint: mean survival time, dose: 288.0 mg/kg/injection, schedule: Q01DX Z (oral), vehicle: other 103 % of control | endpoint: mean survival time, dose: 432.0 mg/kg/injection, schedule: Q01DX Z (oral), vehicle: other 95 % of control | endpoint: mean survival time, dose: 512.0 mg/kg/injection, schedule: Q01DX001 (oral), vehicle: saline 106 % of control | endpoint: mean survival time, dose: 512.0 mg/kg/injection, schedule: Q01DX009 (oral), vehicle: saline 112 % of control | endpoint: mean survival time, dose: 1024.0 mg/kg/injection, schedule: Q01DX001 (oral), vehicle: saline 109 % of control | endpoint: median survival time, dose: 5.0 mg/kg/injection, schedule: Q01DX009 (ip), vehicle: saline 110 % of control and 113 % of control

— PubChem BioAssay AID248 (DTP/NCI, 2004)
